Read-outs that look alike come from different tables or passages of the source.
Columns and labels:
Test in all cases: NCI one-dose SRB anti-proliferative screen
Assay type in all cases: cell-based
[1] = system: 786-0; conditions: Homo sapiens, read-out: Cell growth inhibition %
Protocol: (§1) The twenty-four synthesized compounds were submitted to the National Cancer Institute (NCI), USA. Eighteen hybrids 7a-h, 7k-r, 7u, and 7v were selected by NCI for one-dose assessment of their anti-proliferative activities at 10 µM dose by Sulforhodamine B colorimetric assay. The assessment was performed in 60 cell lines derived from nine tumor subpanels, comprising lung, leukemia, melanoma, colon, renal, CNS, prostate, breast, and ovarian cancer cell lines.
(§2) The methodology of the NCI anti-proliferative screening has been described in details elsewhere (http://www.dtp.nci.nih.gov).

[2] = system: A549/ATCC; conditions: Homo sapiens, read-out: Cell growth inhibition %
Protocol: as §1, §2

[3] = system: ACHN; conditions: Homo sapiens, read-out: Cell growth inhibition %
Protocol: as §1, §2

[4] = system: CAKI-1; conditions: Homo sapiens, read-out: Cell growth inhibition %
Protocol: as §1, §2

[5] = system: CCRF-CEM; conditions: Homo sapiens, read-out: Cell growth inhibition %
Protocol: as §1, §2

[6] = system: COLO 205; conditions: Homo sapiens, read-out: Cell growth inhibition %
Protocol: as §1, §2

[7] = system: DU-145; conditions: Homo sapiens, read-out: Cell growth inhibition %
Protocol: as §1, §2

[8] = system: EKVX; conditions: Homo sapiens, read-out: Cell growth inhibition %
Protocol: as §1, §2

[9] = system: HCC-2998; conditions: Homo sapiens, read-out: Cell growth inhibition %
Protocol: as §1, §2

[10] = system: HS 578T; conditions: Homo sapiens, read-out: Cell growth inhibition %
Protocol: as §1, §2

[11] = system: IGROV1; conditions: Homo sapiens, IGROV-1, read-out: Cell growth inhibition %
Protocol: as §1, §2

[12] = system: KM12; conditions: Homo sapiens, read-out: Cell growth inhibition %
Protocol: as §1, §2

[13] = system: LOX IMVI; conditions: Homo sapiens; for inhibition at 10 µM: read-out: Cell growth inhibition %
Protocol: as §1, §2

[14] = system: MALME-3M; conditions: Homo sapiens, read-out: Cell growth inhibition %
Protocol: as §1, §2

[15] = system: MCF7; conditions: Homo sapiens, read-out: Cell growth inhibition %
Protocol: as §1, §2

[16] = system: MDA-MB-468; conditions: Homo sapiens, read-out: Cell growth inhibition %
Protocol: as §1, §2

[17] = system: NCI-H226; conditions: Homo sapiens, read-out: Cell growth inhibition %
Protocol: as §1, §2

[18] = system: NCI-H23; conditions: Homo sapiens, read-out: Cell growth inhibition %
Protocol: as §1, §2

[19] = system: NCI-H522; conditions: Homo sapiens, read-out: Cell growth inhibition %
Protocol: as §1, §2

[20] = system: OVCAR-3; conditions: Homo sapiens, read-out: Cell growth inhibition %
Protocol: as §1, §2

[21] = system: PC-3; conditions: Homo sapiens, read-out: Cell growth inhibition %
Protocol: as §1, §2

[22] = system: RPMI-8226; conditions: Homo sapiens, read-out: Cell growth inhibition %
Protocol: as §1, §2

[23] = system: SF-268; conditions: Homo sapiens, read-out: Cell growth inhibition %
Protocol: as §1, §2

[24] = system: SF-295; conditions: Homo sapiens, read-out: Cell growth inhibition %
Protocol: as §1, §2

[25] = system: SK-MEL-28; conditions: Homo sapiens, read-out: Cell growth inhibition %
Protocol: as §1, §2

[26] = system: SK-MEL-5; conditions: Homo sapiens, read-out: Cell growth inhibition %
Protocol: as §1, §2

[27] = system: SK-OV-3; conditions: Homo sapiens, read-out: Cell growth inhibition %
Protocol: as §1, §2

[28] = system: SN12C; conditions: Homo sapiens, read-out: Cell growth inhibition %
Protocol: as §1, §2

[29] = system: SNB-75; conditions: Homo sapiens, read-out: Cell growth inhibition %
Protocol: as §1, §2

[30] = system: UACC-257; conditions: Homo sapiens, read-out: Cell growth inhibition %
Protocol: as §1, §2

[31] = system: UACC-62; conditions: Homo sapiens, read-out: Cell growth inhibition %
Protocol: as §1, §2

[32] = 786-0 (Renal Cancer), NCI one dose 10 µM
[33] = A549/ATCC (Non-Small Cell Lung Cancer), NCI one dose 10 µM
[34] = ACHN (Renal Cancer), NCI one dose 10 µM
[35] = CAKI-1 (Renal Cancer), NCI one dose 10 µM
[36] = CCRF-CEM (Leukemia), NCI one dose 10 µM
[37] = COLO 205 (Colon Cancer), NCI one dose 10 µM
[38] = DU-145 (Prostate Cancer), NCI one dose 10 µM
[39] = EKVX (Non-Small Cell Lung Cancer), NCI one dose 10 µM
[40] = HCC-2998 (Colon Cancer), NCI one dose 10 µM
[41] = HS 578T (Breast Cancer), NCI one dose 10 µM
[42] = IGROV1 (Ovarian Cancer), NCI one dose 10 µM
[43] = KM12 (Colon Cancer), NCI one dose 10 µM
[44] = LOX IMIV (Melanoma), NCI one dose 10 µM
[45] = MALME-3M (Melanoma), NCI one dose 10 µM
[46] = MCF7 (Breast Cancer), NCI one dose 10 µM
[47] = MDA-MB-468 (Breast Cancer), NCI one dose 10 µM
[48] = NCI-H226 (Non-Small Cell Lung Cancer), NCI one dose 10 µM
[49] = NCI-H23 (Non-Small Cell Lung Cancer), NCI one dose 10 µM
[50] = NCI-H522 (Non-Small Cell Lung Cancer), NCI one dose 10 µM
[51] = OVCAR-3 (Ovarian Cancer), NCI one dose 10 µM
[52] = PC-3 (Prostate Cancer), NCI one dose 10 µM
[53] = RPMI-8226 (Leukemia), NCI one dose 10 µM
[54] = SF-268 (CNS Cancer), NCI one dose 10 µM
[55] = SF-295 (CNS Cancer), NCI one dose 10 µM
[56] = SK-MEL-28 (Melanoma), NCI one dose 10 µM
[57] = SK-MEL-5 (Melanoma), NCI one dose 10 µM
[58] = SK-OV-3 (Ovarian Cancer), NCI one dose 10 µM
[59] = SN 12C (Renal Cancer), NCI one dose 10 µM
[60] = SNB-75 (CNS Cancer), NCI one dose 10 µM
[61] = UACC-257 (Melanoma), NCI one dose 10 µM
[62] = UACC-62 (Melanoma), NCI one dose 10 µM

COc1cc(/C=C/C(=O)c2ccc(NC(=O)CSc3nnc(-c4ccc5[nH]c(-c6ccccc6)nc5c4)o3)cc2)cc(OC)c1OC [Compound 7e, 2-{5-[2-Phenyl-1 H-benzo[d]imidazol-5-yl]-1,3,4-oxadiazol-2-ylthio}-N-{4-[(E)-3-(3,4,5-trimethoxyphenyl)acryloyl]phenyl}acetamide]
inhibition at 10 µM ([1]; 786-0, Renal cancer, NCI one dose): 24.6%
inhibition at 10 µM ([2]; A549/ATCC, Non-Small Cell Lung Cancer, NCI one dose): 0%
inhibition at 10 µM ([3]; ACHN, Renal cancer, NCI one dose): 0%
inhibition at 10 µM ([4]; CAKI-1, Renal cancer, NCI one dose): 0%
inhibition at 10 µM ([5]; CCRF-CEM, Leukemia, NCI one dose): 62.5%
inhibition at 10 µM ([6]; COLO 205, Colon cancer, NCI one dose): 0%
inhibition at 10 µM ([7]; DU-145, Prostate Cancer, NCI one dose): 9.02%
inhibition at 10 µM ([8]; EKVX, Non-Small Cell Lung Cancer, NCI one dose): 0.96%
inhibition at 10 µM ([9]; HCC-2998, Colon cancer, NCI one dose): 0%
inhibition at 10 µM ([10]; HS 578T, Breast cancer, NCI one dose): 14.5%
inhibition at 10 µM ([11]; IGROV1, Ovarian Cancer, NCI one dose): 2.76%
inhibition at 10 µM ([12]; KM12, Colon cancer, NCI one dose): 10%
activity at 10 µM ([13]; LOX IMVI (Melanoma), 10 µM one dose, read-out: Growth Percent): 56%
inhibition at 10 µM ([13]; Melanoma, NCI one dose): 44%
inhibition at 10 µM ([14]; MALME-3M, Melanoma, NCI one dose): 0%
inhibition at 10 µM ([15]; MCF7, Breast cancer, NCI one dose): 56.1%
inhibition at 10 µM ([16]; MDA-MB-468, Breast cancer, NCI one dose): 5.09%
inhibition at 10 µM ([17]; NCI-H226, Non-Small Cell Lung Cancer, NCI one dose): 0.66%
inhibition at 10 µM ([18]; NCI-H23, Non-Small Cell Lung Cancer, NCI one dose): 7.28%
inhibition at 10 µM ([19]; NCI-H522, Non-Small Cell Lung Cancer, NCI one dose): 4.71%
inhibition at 10 µM ([20]; OVCAR-3, Ovarian Cancer, NCI one dose): 27.9%
inhibition at 10 µM ([21]; PC-3, Prostate Cancer, NCI one dose): 1.05%
inhibition at 10 µM ([22]; RPMI-8226, Leukemia, NCI one dose): 69.3%
inhibition at 10 µM ([23]; SF-268, CNS Cancer, NCI one dose): 2.34%
inhibition at 10 µM ([24]; SF-295, CNS Cancer, NCI one dose): 0%
inhibition at 10 µM ([25]; SK-MEL-28, Melanoma, NCI one dose): 6.64%
inhibition at 10 µM ([26]; SK-MEL-5, Melanoma, NCI one dose): 7.81%
inhibition at 10 µM ([27]; SK-OV-3, Ovarian Cancer, NCI one dose): 0%
inhibition at 10 µM ([28]; SN 12C, Renal cancer, NCI one dose): 9.21%
inhibition at 10 µM ([29]; SNB-75, CNS Cancer, NCI one dose): 18.9%
inhibition at 10 µM ([30]; UACC-257, Melanoma, NCI one dose): 12.4%
inhibition at 10 µM ([31]; UACC-62, Melanoma, NCI one dose): 17%

O=C(CSc1nnc(-c2ccc3[nH]c(-c4ccc(Cl)cc4)nc3c2)o1)Nc1ccc(C(=O)/C=C/c2ccccc2)cc1 [Compound 7f, 2-{5-[2-(4-Chlorophenyl)-1 H-benzo[d]imidazol-5-yl]-1,3,4-oxadiazol-2-ylthio}-N-{4-[(E)-3-phenylacryloyl]phenyl}acetamide]
inhibition at 10 µM [1, 32]: 0%
inhibition at 10 µM [2, 33]: 0%
inhibition at 10 µM [3, 34]: 0%
inhibition at 10 µM [4, 35]: 1.83%
inhibition at 10 µM [5, 36]: 0%
inhibition at 10 µM [6, 37]: 0%
inhibition at 10 µM [7, 38]: 0%
inhibition at 10 µM [8, 39]: 0%
inhibition at 10 µM [9, 40]: 0%
inhibition at 10 µM [10, 41]: 0%
inhibition at 10 µM [11, 42]: 0%
inhibition at 10 µM [12, 43]: 0%
inhibition at 10 µM [13, 44]: 22.9%
inhibition at 10 µM [14, 45]: 3.93%
inhibition at 10 µM [15, 46]: 18.4%
inhibition at 10 µM [16, 47]: 0%
inhibition at 10 µM [17, 48]: 2.19%
inhibition at 10 µM [18, 49]: 0%
inhibition at 10 µM [19, 50]: 0%
inhibition at 10 µM [20, 51]: 0%
inhibition at 10 µM [21, 52]: 0%
inhibition at 10 µM [22, 53]: 23.2%
inhibition at 10 µM [23, 54]: 0%
inhibition at 10 µM [24, 55]: 0%
inhibition at 10 µM [25, 56]: 0%
inhibition at 10 µM [26, 57]: 0.99%
inhibition at 10 µM [27, 58]: 0%
inhibition at 10 µM [28, 59]: 0%
inhibition at 10 µM [29, 60]: 1.75%
inhibition at 10 µM [30, 61]: 0%
inhibition at 10 µM [31, 62]: 5.12%

O=C(CSc1nnc(-c2ccc3[nH]c(-c4ccc(Cl)cc4)nc3c2)o1)Nc1ccc(C(=O)/C=C/c2ccc(Cl)cc2)cc1 [Compound 7g, 2-{5-[2-(4-Chlorophenyl)-1 H-benzo[d]imidazol-5-yl]-1,3,4-oxadiazol-2-ylthio}-N-{4-[(E)-3-(4-chlorophenyl)acryloyl]phenyl}acetamide]
inhibition at 10 µM [1, 32]: 7.38%
inhibition at 10 µM [2, 33]: 4.52%
inhibition at 10 µM [3, 34]: 1.98%
inhibition at 10 µM [4, 35]: 16.4%
inhibition at 10 µM [5, 36]: 13.6%
inhibition at 10 µM [6, 37]: 0%
inhibition at 10 µM [7, 38]: 0%
inhibition at 10 µM [8, 39]: 6.19%
inhibition at 10 µM [9, 40]: 0%
inhibition at 10 µM [10, 41]: 11%
inhibition at 10 µM [11, 42]: 14.4%
inhibition at 10 µM [12, 43]: 0.67%
inhibition at 10 µM [13, 44]: 124%
inhibition at 10 µM [14, 45]: 0%
inhibition at 10 µM [15, 46]: 44.8%
inhibition at 10 µM [16, 47]: 0%
inhibition at 10 µM [17, 48]: 14%
inhibition at 10 µM [18, 49]: 0%
inhibition at 10 µM [19, 50]: 11.6%
inhibition at 10 µM [20, 51]: 0%
inhibition at 10 µM [21, 52]: 12.3%
inhibition at 10 µM [22, 53]: 95%
inhibition at 10 µM [23, 54]: 0.08%
inhibition at 10 µM [24, 55]: 7.04%
inhibition at 10 µM [25, 56]: 0%
inhibition at 10 µM [26, 57]: 6.32%
inhibition at 10 µM [27, 58]: 0%
inhibition at 10 µM [28, 59]: 15.1%
inhibition at 10 µM [29, 60]: 9.09%
inhibition at 10 µM [30, 61]: 0%
inhibition at 10 µM [31, 62]: 16.8%
